Measured values as given in patent US20160145202A1 (priority 2013, published 2016).

System: Septoria tritici
Assay: Glass house trial: control of leaf blotch on wheat caused by Septoria tritici (SEPTTR_P1)
Format: in vivo
Conditions: 300 ppm, protective P1, wheat seedlings sprayed to run-off, visually assessed after 4 weeks
Procedure: The spray solutions were prepared in several steps:
The stock solution was prepared as follows: 0.84 ml of a 1:1 mixture of cyclohexanone and dimethylsulfoxide was added to 16.8 mg of active ingredient. Next, 27.16 ml of a mixture of water, acetone (10%), the emulsifier Wettol (0.1%) and the wetting agent Silwet (0.05%) was added.
This stock solution was then further diluted with the described solvent-emulsifier-water mixture to the desired concentrations. Two different compound applications were used: “protective, P1” and “curative, K1”, where the first means that the compound solution is applied a day before the fungus while the latter represents the opposite ordering.
Control of Leaf Blotch on Wheat Caused by Septoria tritici (SEPTTR_P1)
Leaves of pot-grown wheat seedling were sprayed to run-off with an aqueous suspension of F-1 (300 ppm), prepared as described. The plants were allowed to air-dry. At the following day the plants were inoculated with an aqueous spore suspension of Septoria tritici. Then the trial plants were immediately transferred to a humid chamber at 18-22° C. and a relative humidity close to 100%. After 4 days the plants were transferred to a chamber with 18-22° C. and a relative humidity close to 70%.

## CNC(=O)OCc1cc(/C(C)=N/OCc2cccc(C)n2)ccc1Cl [F-1, [2-chloro-5-[(E)-C-methyl-N-[(6-methyl-2-pyridyl)methoxy]carbonimidoyl]phenyl]methyl N-methylcarbamate]
  extent of fungal attack on the leaves (infection compared to untreated plants): ≤ 30%
